Literature values in patent publication US20170172144A1, “ECTOPARASITE FORMULATION” (priority 2014, published 2017).
Counter-ions that a name gives are not always drawn.

Conditions: qualitative statement

Row | Molecule | aqueous solubility
1 | c1ccc([C@H]2CN3CCSC3=N2)cc1 [levamisole hydrochloride, Levamisole hydrochloride] | soluble
2 | COC(=O)Nc1nc2ccc([S+]([O-])c3ccccc3)cc2[nH]1 (stereo not drawn) [oxfendazole, Oxfendazole] | relatively low solubility
3 | Abamectin | relatively low solubility
